Measured values taken from patent US4370416A (Kikkoman Corporation, priority 1980, dated 1983).

Experiments:
HCEH = assay: Activity of HCEH on hydroxy-cinnamic acid ester substances and tannic acid (liquid chromatography); format: biochemical; conditions: for Relative activity: HCEH on the substance as substrate, 0.1 M phosphate buffer pH 6.5, molar ratio of produced hydrolyzate; for Action and substrate specificity of the enzyme (hydrolysis of the ester linkage): qualitative
Protocol: Here, the activity of HCEH on various hydroxy-cinnamic acid ester substances and tannic acid was determined by measuring the quantity of their hydrolysis by means of liquid chromatography using 0.1 M phosphate buffer solution (pH 6.5). The results are shown in Table 3, where the activity is expressed as molar ratio of produced hydrolyzate.

novel HCEH = assay: Inhibition of the novel HCEH; format: biochemical

Row | Compound | Relative activity (HCEH) [%] | Action and substrate specificity of the enzyme (hydrolysis of the ester linkage) (HCEH) | Inhibition of HCEH (novel HCEH)
1 | O=C(C=Cc1ccc(O)c(O)c1)OC(C(=O)O)C(O)C(=O)O (stereo not shown) | 69.8 | hydrolyze the ester linkage | –
2 | O=C(C=Cc1ccc(O)c(O)c1)OC1CC(O)(C(=O)O)CC(O)C1O (stereo not shown) [3-caffeoyl quinic acid] | 100 | hydrolyze the ester linkage | –
3 | Oc1cccc2cccnc12 [8-hydroxyquinoline] | – | – | inhibited
4 | [Fe+2] [Fe^++] | – | – | inhibited
5 | [Hg+2] [Hg^++] | – | – | inhibited
6 | COc1cc(C=CC(=O)OC(C(=O)O)C(O)C(=O)O)ccc1O (stereo not shown) [feruloyl tartaric acid] | – | hydrolyze the ester linkage | –
7 | II [iodine] | – | – | inhibited
8 | O=C(O)c1cc[c]([Hg][Cl])cc1 [p-CMB, p-chloromercury-benzoic acid] | – | – | inhibited
9 | O=C(C=Cc1ccc(O)cc1)OC(C(=O)O)C(O)C(=O)O (stereo not shown) [p-coumaroyl tartaric acid] | 78.3 | hydrolyze the ester linkage | –
10 | Tannic acid | 0 | – | –
